According to US20200178542A9, “CONTROL OF PESTS IN COTTON BY G[…] BILOBALIDES” (priority 2015, published 2020):
Where two headings read alike, the source gives them in different places.

Tests used:
Euschistus heros = assay: Spray of cotton seedlings, infestation with adults of Euschistus heros, alive insects and Abbott relative efficacy (Example-2, Example-3); assay type: in vivo; conditions: for Relative Efficacy 1DAI / Relative Efficacy 3DAI: Abbott's formula; for No of alive insects 1DAI / No of alive insects 3DAI: ten adults per plant, mean of 4 replicates
Experimental: Relative efficacy (E) values were calculated according to Abbot's formula
C is the number of alive insects in untreated controls, and G is the number of alive insects in plants treated with components of the ginkgo tree.
Fibermax™ LibertyLink™ cotton, and Bollgard II™ cotton seedlings were sprayed with 2 ml of compositions comprising either no component of the ginkgo tree, or bilobalide at a concentration of 150 ppm, or 100 ppm. Plants were allowed to dry and subsequently infested with ten adults of Euschistus heros. Four replicate measurement on different plants were made for each measurement. One day after infestation (1 DAI), and three days after infestation (3 DAI) the number of live and dead insects was determined. The mean number of alive insects, as well as the relative efficacy values (E) according to Abbott's formula were gathered in Table E, wherein the number of alive insects in untreated controls (C) was the value of the same plant without the application of bilobalide.
The experiment as described in Example-2 was repeated with ginkgolide A in a concentration of 250 ppm. […] The mean number of alive insects, as well as the relative efficacy values (E) according to Abbott's formula were gathered in Table F, wherein the number of alive insects in untreated controls (C) was the value of the same plant without the application of ginkgolide A.

Nezara viridula = assay: Foliar spray of cotton plants, infestation with Nezara viridula, mortality after three days (Example-1); assay type: in vivo; conditions: for mortality at 100 ppm: Nezara viridula, foliar, 72 h
Experimental: Cotton plants were grown to growth stage BBCH 12. The cotton plants were then sprayed with 300 l/ha of aqueous compositions comprising either no component of the ginkgo tree, 300 ppm of ginkgolide A, or 100 ppm of bilobalide. The plants were then infested with five insects (either adult, or 4th instar nymphs) of Nezara viridula insects. Insects were contained on the plant using mesh organza bags. Three replicate measurement on different plants were made for each measurement. Three days after infestation, the number of live and dead insects was determined. The mean mortality values were gathered in Table D.

[1] = Fibermax LibertyLink cotton, 100 ppm
[2] = Fibermax LibertyLink cotton, 150 ppm
[3] = Fibermax LibertyLink cotton, 250 ppm

Compound: CC(C)(C)[C@]1(O)C[C@@H]2OC(=O)C[C@@]23C(=O)O[C@@H]2OC(=O)[C@H](O)[C@]213 [Bilobalide, (3aS,5aR,8aS,9R,10aR)-9-tert-butyl-8,9-dihydroxydihydro-9H-furo[2,3-b]furo[3′,2′; 2,3]cyclopenta[1,2-c]furan-2,4,7(3H,8H)-trione]
- Relative Efficacy 1DAI (Euschistus heros; Bollgard II cotton, 100 ppm): 78%
- No of alive insects 1DAI (Euschistus heros; Bollgard II cotton, 100 ppm): 2.3
- Relative Efficacy 3DAI (Euschistus heros; Bollgard II cotton, 100 ppm): 98%
- No of alive insects 3DAI (Euschistus heros; Bollgard II cotton, 100 ppm): 0.3
- Relative Efficacy 1DAI (Euschistus heros; Bollgard II cotton, 150 ppm): 75%
- No of alive insects 1DAI (Euschistus heros; Bollgard II cotton, 150 ppm): 2.5
- Relative Efficacy 3DAI (Euschistus heros; Bollgard II cotton, 150 ppm): 100%
- No of alive insects 3DAI (Euschistus heros; Bollgard II cotton, 150 ppm): 0.0
- Relative Efficacy 1DAI (Euschistus heros; [1]): 68%
- No of alive insects 1DAI (Euschistus heros; [1]): 3.3
- Relative Efficacy 3DAI (Euschistus heros; [1]): 98%
- No of alive insects 3DAI (Euschistus heros; [1]): 0.3
- Relative Efficacy 1DAI (Euschistus heros; [2]): 70%
- No of alive insects 1DAI (Euschistus heros; [2]): 3.0
- Relative Efficacy 3DAI (Euschistus heros; [2]): 100%
- No of alive insects 3DAI (Euschistus heros; [2]): 0.0
- mortality at 100 ppm (Nezara viridula; read-out: Mortality of 4th instar nymphs): 92.9%
- mortality at 100 ppm (Nezara viridula; read-out: Mortality of Adults): 53.3%

Compound: C[C@@H]1C(=O)O[C@H]2C[C@@]34[C@H]5C[C@@H](C(C)(C)C)[C@]36[C@@H](OC(=O)[C@@H]6O)O[C@@]4(C(=O)O5)[C@]21O [Ginkgolide A]
- Relative Efficacy 1DAI (Euschistus heros; Bollgard II cotton, 250 ppm): 5%
- No of alive insects 1DAI (Euschistus heros; Bollgard II cotton, 250 ppm): 9.5
- Relative Efficacy 3DAI (Euschistus heros; Bollgard II cotton, 250 ppm): 33%
- No of alive insects 3DAI (Euschistus heros; Bollgard II cotton, 250 ppm): 6.8
- Relative Efficacy 1DAI (Euschistus heros; [3]): 0%
- No of alive insects 1DAI (Euschistus heros; [3]): 10.0
- Relative Efficacy 3DAI (Euschistus heros; [3]): 5%
- No of alive insects 3DAI (Euschistus heros; [3]): 9.5
- Mortality of 4th instar nymphs (Nezara viridula; N. viridula 4th instar nymphs on cotton (BBCH 12), 300 ppm, 300 l/ha spray, three days after infestation, mean of 3 replicates): 78.6%
- Mortality of Adults (Nezara viridula; N. viridula adults on cotton (BBCH 12), 300 ppm, 300 l/ha spray, three days after infestation, mean of 3 replicates): 93.3%
